# Measured values reported in publication PMC6219798, “A novel decarboxylating amidohydrolase involved in avoiding metabolic dead ends during cyanuric acid catabolism in Pseudomonas sp. strain ADP” (PLoS ONE, 2018).
# Tests used:
# AtzEG = target: T1, AtzEG (Pseudomonas sp. ADP, UniProt Q936X3); assay: GDH-coupled ammonia release at […] nm; format: biochemical; conditions: substrate made in situ by AtzD from 1 mM cyanuric acid; 0.17 uM enzyme, 25 mM potassium phosphate pH 8.5
# T1 construct: gene atzE; AtzE and AtzG co-expressed from pACYCDuet-1 in E. coli BL21(DE3); heterotetramer; with 1-carboxybiuret hydrolase subunit AtzG
# T1 sequence (Q936X3 1-457): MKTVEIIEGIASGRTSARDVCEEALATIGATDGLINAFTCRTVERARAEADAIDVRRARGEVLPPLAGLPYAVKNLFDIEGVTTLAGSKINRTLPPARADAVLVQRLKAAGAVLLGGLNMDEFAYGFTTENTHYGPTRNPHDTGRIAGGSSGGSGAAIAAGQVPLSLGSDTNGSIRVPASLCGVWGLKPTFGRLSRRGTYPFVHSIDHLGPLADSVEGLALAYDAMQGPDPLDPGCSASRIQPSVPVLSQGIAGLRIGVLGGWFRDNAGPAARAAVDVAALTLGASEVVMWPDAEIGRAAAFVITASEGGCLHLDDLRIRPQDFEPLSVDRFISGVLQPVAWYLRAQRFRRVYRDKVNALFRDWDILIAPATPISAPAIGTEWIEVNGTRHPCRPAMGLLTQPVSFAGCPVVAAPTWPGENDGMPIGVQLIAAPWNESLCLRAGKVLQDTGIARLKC
# T1 sequence (A0A384E126 1-68 partner): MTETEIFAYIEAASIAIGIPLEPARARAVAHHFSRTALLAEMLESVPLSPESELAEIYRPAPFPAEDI
# AtzD = target: T2, AtzD (Pseudomonas sp. ADP, UniProt P58329); assay: UV absorbance at […] nm, ring opening; format: biochemical; conditions: 12 uM AtzD, 1 mM cyanuric acid
# T2 construct: His6-tagged, E. coli BL21(DE3), Ni-NTA purified; cloning described elsewhere
# T2 sequence (P58329 1-363): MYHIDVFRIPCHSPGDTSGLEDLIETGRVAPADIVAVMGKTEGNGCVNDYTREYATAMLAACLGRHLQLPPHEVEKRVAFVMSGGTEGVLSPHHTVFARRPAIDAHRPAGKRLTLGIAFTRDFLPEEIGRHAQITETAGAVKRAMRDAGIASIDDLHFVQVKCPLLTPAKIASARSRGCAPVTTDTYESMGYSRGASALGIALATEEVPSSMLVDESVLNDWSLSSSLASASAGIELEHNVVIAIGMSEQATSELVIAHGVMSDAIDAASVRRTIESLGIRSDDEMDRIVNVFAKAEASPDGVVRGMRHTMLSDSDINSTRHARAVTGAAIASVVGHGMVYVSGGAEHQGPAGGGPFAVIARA
# [1] = target: AtzH from Pseudomonas sp. strain ADP, his-tag removed (Pseudomonas sp. strain ADP); assay: SEC; size exclusion chromatography of AtzH after removal of the his-tag; Superdex preparation grade resin, 130 mL column, 25 mM HEPES, 200 mM NaCl, pH 7.5
molecule,measurement,setting,value
NC(=O)NC(=O)NC(=O)O [1-carboxybiuret],GDH-coupled ammonia release at 340 nm,AtzEG,The substrate for AtzEG (1-carboxybiuret) is unstable and was therefore produced in situ
"O=c1[nH]c(=O)[nH]c(=O)[nH]1 [cyanuric acid, 1,3,5-triazine-2,4,6-triol]","UV absorbance at 214 nm, ring opening",AtzD,incubating AtzD and its substrate in the presence or absence of AtzH
"AtzH from Pseudomonas sp. strain ADP, his-tag removed (enzyme)",stoichiometry N,[1],2
